Data: patent publication US12643879B2, “Functionalized heterocyclic compounds as modulators of stimulator of interferon genes (STING)” (RYVU THERAPEUTICS S.A., priority 2019, dated 2026)
Structures can show the parent of a compound that is named as a salt. Where two headings read alike, the source gives them in different places.

Key:
[1] = test system: interferon regulatory factor (IRF) pathway in THP-1 dual cells; experiment: THP-1 Dual reporter assay, IRF pathway (luciferase); format: cell-based; conditions: 18 h stimulation, luminescence, read-out: THP1 Dual EC50 (μM) IRF
Method: (§1) Compounds of the present invention were tested for their activity using THP-1 dual cells (Invivogen, cat no. thpd-nfis) allowing for simultaneous study of NF-κB pathway and the interferon regulatory factor (IRF) pathway. THP-1 dual cells contain luciferase reporter gene under the control of an ISG54 (interferon-stimulated gene) minimal promoter in conjunction with five interferon-stimulated response elements and a secreted embryonic alkaline phosphatase reporter gene under the control an IFN (interferon)-β minimal promoter fused to five copies of the NF-κB consensus transcriptional response element with three copies of the c-Rel binding site. Following 18 h of stimulation with STING agonist, medium was collected and transferred onto fresh cell culture plate. To verify activity of the IRF pathway, luminescence activity was measured with standard laboratory plate reader immediately after addition 10 μl of the medium to 40 or 50 μl of luminescence reagent (Invivogen, cat. No. rep-qlc2). To verify activity of NF-κB pathway, 10 or 20 μl of the medium was mixed with 80 μl of a detection medium (Invivogen, cat. No. rep-qb2) and incubated for 1 or 2 hours at 37° C. in a humidified atmosphere containing 5% CO2. Next, absorbance at 630 or 655 nm was recorded using standard laboratory plate reader.

[2] = test system: NF-κB pathway in THP-1 dual cells; experiment: THP-1 Dual reporter assay, NF-κB pathway (SEAP); format: cell-based; conditions: Homo sapiens, THP1-Dual; 18 h stimulation, absorbance at 630 or 655 nm; read-out: THP1 Dual EC50 (μM) NFkB
Method: as §1

Structure (SMILES) | EC50 ([1]; Homo sapiens, THP1-Dual) [µM] | EC50 [2] [µM] | EC50 [1] [µM]
Cc1ccc(N2CCC[C@H](N(Cc3ccnc(C)c3)Cc3cn(C)c4cc(N5CC[C@@H](N)C(F)(F)C5)ccc4c3=O)C2)cn1 (single isomer, unassigned) [Example 50] | < 1 | < 1 | 
Cc1ccc(N2CCC[C@H](N(Cc3ccnc(C)c3)Cc3cn(C4CC4)c4cc(N5CC[C@@H](N)C(F)(F)C5)c(F)cc4c3=O)C2)cn1.Cl (single isomer, unassigned) [Example 56, 7-[(4R)-4-amino-3,3-difluoropiperidin-1-yl]-1-cyclopropyl-6-fluoro-3-({[(3S)-1-(6-methylpyridin-3-yl)piperidin-3-yl][(2-methylpyridin-4-yl)methyl]amino}methyl)-1,4-dihydroquinolin-4-one] | < 1 | < 1 | 
Cc1ccc(N2CCC[C@H](N(Cc3ccnc(C)c3)Cc3cn(C4CC4)c4cc(N5CC[C@H](N)C(F)(F)C5)c(F)cc4c3=O)C2)cn1.Cl (single isomer, unassigned) [Example 57, 7-[(4S)-4-amino-3,3-difluoropiperidin-1-yl]-1-cyclopropyl-6-fluoro-3-({[(3S)-1-(6-methylpyridin-3-yl)piperidin-3-yl][(2-methylpyridin-4-yl)methyl]amino}methyl)-1,4-dihydroquinolin-4-one] | < 1 | < 1 | 
Cc1ccc(N2CCC[C@H](N(Cc3ccnc(C)c3)Cc3cn(C4CC4)c4cc(N5CCO[C@@H](CO)C5)c(F)cc4c3=O)C2)cn1 (single isomer, unassigned) [Example 72] | < 1 | < 1 | 
Cc1ccc(N2CCC[C@H](N(Cc3ccnc(C)c3)Cc3cn(C4CC4)c4cc(N5CCO[C@H](CO)C5)c(F)cc4c3=O)C2)cn1 (single isomer, unassigned) [Example 73] | < 1 | < 1 | 
Cc1cc(CN(Cc2cn(C3CC3)c3cc(N4CCC(CO)C4)c(F)cc3c2=O)[C@H]2CCCN(c3cccnc3)C2)ccn1 (stereo in doubt) [Example 88, 1-cyclopropyl-6-fluoro-7-[(3R)-3-(hydroxymethyl)pyrrolidin-1-yl]-3-({[(2-methylpyridin-4-yl)methyl][(3S)-1-(pyridin-3-yl)piperidin-3-yl]amino}methyl)-1,4-dihydroquinolin-4-one hydrochloride] |  |  | < 1

The remaining lines, values ahead:

EC50 ([1]; Homo sapiens, THP1-Dual) [µM] | EC50 [2] [µM] | EC50 [1] [µM] | Structure (SMILES)
< 1 | < 1 |  | C#CCOCCOCCOCCOCCOCCC(=O)Nc1ccc(N2CCC[C@H](N(Cc3ccnc(OC)c3)Cc3cn(C4CC4)c4cc(F)c(F)cc4c3=O)C2)cn1 [Example 4A, N-{5-[(3S)-3-{[(1-cyclopropyl-6,7-difluoro-4-oxo-1,4-dihydroquinolin-3-yl)methyl][(2-methoxypyridin-4-yl)methyl]amino}piperidin-1-yl]pyridin-2-yl}-4,7,10,13,16-pentaoxanonadec-18-ynamide]
> 10 | > 10 |  | Cc1ccc(N2CCC[C@H](N(Cc3ccnc(C)c3)Cc3cn(C4CC4)c4cc(OCCNC(=O)OCc5ccc(NC(=O)[C@H](CCCNC(N)=O)NC(=O)[C@@H](NC(=O)CCOCCOCCOCCN=[N+]=[N-])C(C)C)cc5)c(F)cc4c3=O)C2)cn1 [Example 10A, {4-[(2S)-2-[(2S)-2-(3-{2-[2-(2-azidoethoxy)ethoxy]ethoxy}propanamido)-3-methyl-butanamido]-5-(carbamoylamino)pentanamido]phenyl}methyl N-(2-{[1-cyclopropyl-6-fluoro-3-({[(3S)-1-(6-methylpyridin-3-yl)piperidin-3-yl][(2-methylpyridin-4-yl)methyl]amino}methyl)-4-oxo-1,4-dihydroquinolin-7-yl]oxy}ethyl)carbamate]
1 to 10 | 1 to 10 |  | Cc1ccc(N2CCC[C@H](N(Cc3ccnc(C)c3)Cc3cn(C4CC4)c4cc(OCCN(C)C(=O)COCCOCCN)c(F)cc4c3=O)C2)cn1 [Example 11A, 2-[2-(2-aminoethoxy)ethoxy]-N-(2-{[1-cyclopropyl-6-fluoro-3-({[(3S)-1-(6-methylpyridin-3-yl)piperidin-3-yl][(2-methylpyridin-4-yl)methyl]amino}methyl)-4-oxo-1,4-dihydroquinolin-7-yl]oxy}ethyl)-N-methylacetamide]
1 to 10 | 1 to 10 |  | Cc1ccc(N2CCC[C@H](N(Cc3ccnc(C)c3)Cc3cn(C4CC4)c4cc(OCCN(C)C(=O)CCOCCOCCOCCN)c(F)cc4c3=O)C2)cn1 [Example 11B, 3-{2-[2-(2-aminoethoxy)ethoxy]ethoxy}-N-(2-{[1-cyclopropyl-6-fluoro-3-({[(3S)-1-(6-methylpyridin-3-yl)piperidin-3-yl][(2-methylpyridin-4-yl)methyl]amino}methyl)-4-oxo-1,4-dihydroquinolin-7-yl]oxy}ethyl)-N-methylpropanamide]
1 to 10 | 1 to 10 |  | Cc1ccc(N2CCC[C@H](N(Cc3ccnc(C)c3)Cc3cn(C4CC4)c4cc(OCCN(C)CCOCCOCCOCCOCCN)c(F)cc4c3=O)C2)cn1 [Example 11C, 7-[(1-amino-15-methyl-3,6,9,12-tetraoxa-15-azaheptadecan-17-yl)oxy]-1-cyclopropyl-6-fluoro-3-({[(3S)-1-(6-methylpyridin-3-yl)piperidin-3-yl][(2-methylpyridin-4-yl)methyl]amino}methyl)-1,4-dihydroquinolin-4-one]
1 to 10 | 1 to 10 |  | Cc1ccc(N2CCC[C@H](N(Cc3ccnc(C)c3)Cc3cn(C4CC4)c4cc(OCCN(C)C(=O)CCOCCOCCOCCOCCOCCOCCOCCN)c(F)cc4c3=O)C2)cn1 [Example 11D, 1-amino-N-(2-{[1-cyclopropyl-6-fluoro-3-({[(3S)-1-(6-methylpyridin-3-yl)piperidin-3-yl][(2-methylpyridin-4-yl)methyl]amino}methyl)-4-oxo-1,4-dihydroquinolin-7-yl]oxy}ethyl)-N-methyl-3,6,9,12,15,18,21-heptaoxatetracosan-24-amide]
1 to 10 | 1 to 10 |  | Cc1ccc(N2CCC[C@H](N(Cc3ccnc(C)c3)Cc3cn(C4CC4)c4cc(OCCN(C)C(=O)CCOCCOCCOCCOCCOCCOCCOCCC(=O)O)c(F)cc4c3=O)C2)cn1 [Example 11E, 1-[(2-{[1-cyclopropyl-6-fluoro-3-({[(3S)-1-(6-methylpyridin-3-yl)piperidin-3-yl][(2-methylpyridin-4-yl)methyl]amino}methyl)-4-oxo-1,4-dihydroquinolin-7-yl]oxy}ethyl)(methyl)carbamoyl]-3,6,9,12,15,18,21-heptaoxatetracosan-24-oic acid]
< 1 | < 1 |  | C#CCOCCOCCOCCOCCOCCC(=O)Nc1ccc(COC(=O)N(C)CCOc2cc3c(cc2F)c(=O)c(CN(Cc2ccnc(C)c2)[C@H]2CCCN(c4ccc(C)nc4)C2)cn3C2CC2)cc1 [Example 11F, [4-(4,7,10,13,16-pentaoxanonadec-18-ynamido)phenyl]methyl N-(2-{[1-cyclopropyl-6-fluoro-3-({[(3S)-1-(6-methylpyridin-3-yl)piperidin-3-yl][(2-methylpyridin-4-yl)methyl]amino}methyl)-4-oxo-1,4-dihydroquinolin-7-yl]oxy}ethyl)-N-methylcarbamate]
1 to 10 | 1 to 10 |  | Cc1ccc(N2CCC[C@H](N(Cc3ccnc(C)c3)Cc3cn(C4CC4)c4cc(OCCN(C)C(=O)CCOCCOCCOCCC(=O)O)c(F)cc4c3=O)C2)cn1 [Example 11G, 3-[2-(2-{2-[(2-{[1-cyclopropyl-6-fluoro-3-({[(3S)-1-(6-methylpyridin-3-yl)piperidin-3-yl][(2-methylpyridin-4-yl)methyl]amino}methyl)-4-oxo-1,4-dihydroquinolin-7-yl]oxy}ethyl)(methyl)carbamoyl]ethoxy}ethoxy)ethoxy]propanoic acid formate]
> 10 | > 10 |  | Cc1ccc(N2CCC[C@H](N(Cc3ccnc(C)c3)Cc3cn(C4CC4)c4cc(OCCN(C)C(=O)OCc5ccc(NC(=O)[C@H](CCCNC(N)=O)NC(=O)[C@@H](NC(=O)CCOCCOCCOCCN=[N+]=[N-])C(C)C)cc5)c(F)cc4c3=O)C2)cn1 [Example 11H, {4-[(2S)-2-[(2S)-2-(3-{2-[2-(2-azidoethoxy)ethoxy]ethoxy}propanamido)-3-methyl-butanamido]-5-(carbamoylamino)pentanamido]phenyl}methyl N-(2-{[1-cyclopropyl-6-fluoro-3-({[(3S)-1-(6-methylpyridin-3-yl)piperidin-3-yl][(2-methylpyridin-4-yl)methyl]amino}methyl)-4-oxo-1,4-dihydroquinolin-7-yl]oxy}ethyl)-N-methylcarbamate]
1 to 10 | > 10 |  | Cc1ccc(N2CCC[C@H](N(Cc3ccnc(C)c3)Cc3cn(C4CC4)c4cc(N5CC[C@@H](NC(=O)OCc6ccc(NC(=O)[C@H](CCCNC(N)=O)NC(=O)[C@@H](NC(=O)CCOCCOCCOCCN=[N+]=[N-])C(C)C)cc6)C5)c(F)cc4c3=O)C2)cn1 [Example 12A, {4-[(2S)-2-[(2S)-2-(3-{2-[2-(2-azidoethoxy)ethoxy]ethoxy}propanamido)-3-methyl-butanamido]-5-(carbamoylamino)pentanamido]phenyl}methyl N-[(3R)-1-[1-cyclopropyl-6-fluoro-3-({[(3S)-1-(6-methylpyridin-3-yl)piperidin-3-yl][(2-methylpyridin-4-yl)methyl]amino}methyl)-4-oxo-1,4-dihydroquinolin-7-yl]pyrrolidin-3-yl]carbamate]
